Literature values as cited in patent US20190150439A1, “SOLUBLE LIQUID FORMULATIONS OF QUINCLORAC AMMONIUM SALTS” (BASF SE, priority 2012, published 2019).

Conditions: pH 7 at 20° C.

In the case of `O=C(O)c1c(Cl)ccc2cc(Cl)cnc12` [Quinclorac, 3,7-dichloro-8-quinolinecarboxylic acid], the solubility in water is listed as 0.065 mg/kg.
